Measured values published in article PMC4191400 (Nucleic Acids Research, 2014).
“And” between values parts separate entries of the source, which are not always exact repeats. Equal values may be shown once. Read-outs that look alike come from different tables or passages of the source.

Key:
K103N RT–T/P complex [1] = biological target: T1, K103N RT–T/P complex (Human immunodeficiency virus type 1 group M subtype B, UniProt P04585, K690N); assay: dTTP binding to RT-T/P complex by fluorescence anisotropy, K103N; design: species or system HIV-1; conditions: presence vs absence of EFV
T1 construct: asymmetric heterodimer composed of a 66-kDa (p66) subunit and a p66-derived 51-kDa (p51) subunit; made in house
Protocol: (§1) Fluorescence anisotropy experiments were performed as previously described ([17],[18]). Assays were carried out using a fluorescein-labeled T/P substrate. The concentration of T/P in all experiments was 5 nM (in a 400-μl cuvette). Data were analyzed as described in the Supplementary Materials and Methods section.
(§2) -ddC-3’) was annealed to a 5’-biotinylated 35 nucleotide DNA […]
(§3) template (5’-biotin-[…]-3’). We also […]
(§4) performed PIFE experiments using a 21 nucleotide DNA primer (5’-Cy3- […]
-ddC-3’) annealed to the same template. For the single-pair FRET experiments, the same T/P was used, but it lacked 5’-Cy3. For the anisotropy experiments we used a 19 nt DNA primer (5’-Fluorescein-dT-[…]- […]
Fluorescence anisotropy experiments were performed as previously described (5, 6), using a Varian Cary Eclipse fluorescence spectrophotometer. […] Anisotropy (r) was calculated as: r= (IVV-G·IVH)/(IVV+2·G·IVH) (1) where IVV is the fluorescence intensity with vertically oriented excitation and emission polarizers and IVH is the fluorescence intensity with a vertically oriented excitation polarizer and a horizontally oriented emission polarizer. The G-factor, defined as G=IHV/IHH, was measured before each experiment to ensure a value of ~ 1.65. […]
For fluorescein, empirically determined values of ro = […] and τ = 4.1 ns were used (8, 9). θ was calculated using the equation: […]
(§5) analyzed. […]

K101R/E138D HIV-1 = assay: HIV-1 drug susceptibility assay, K101R/E138D virus; type: cell-based; conditions: for EC50: Human immunodeficiency virus 1, head: P4/R5 cells, footnote: TZM-bl cells, mean ± SD, read-out: EC50, inhibition of HIV-1 replication
Protocol: (§6) The genes for K103N, E138D/K101R and K101R/K103N/E138D RT were cloned into HIV-1LAI ([11]). NNRTI susceptibility was determined in TZM-bl cells as described previously ([21]).

WT RT–T/P complex [2] = biological target: WT RT–T/P complex (Human immunodeficiency virus type 1 group M subtype B, UniProt P04585, C625V/C867S/D837C/T726C); design: species or system HIV-1; conditions: for Eapp (apparent FRET energy transfer, fingers-thumb): mean ± SD
Protocol: Single-molecule total internal reflection fluorescence (TIRF) microscopy was performed as described previously ([19]). For the PIFE assays, Cy3-labeled T/P molecules were surface-tethered to a polyethylene glycol (PEG) treated flow cell via a biotin:streptavidin:biotin-PEG linkage. The concentrations of T/P were typically 20 pM, which provided an optimal surface density of ∼100 molecules per field of view. […] For the FRET assays, unlabeled T/P was surface-tethered by introducing 2 μM T/P into the flow cell to allow formation of a surface-dense layer of T/P substrates. Labeled RT (40 pM) was then introduced into the flow cell and allowed to bind to the T/P. Unbound RT was removed by washing. The PIFE and FRET data were analyzed as described in Supplementary Materials and Methods.
All experiments were performed in 50 mM Tris-HCl, pH 7.5, 25 mM NaCl, and 5 mM MgCl2.
The buffer used in TIRF microscopy experiments also contained 0.1 mg/ml glucose oxidase, 0.02 mg/ml catalase, 0.4% wt/v β-d-glucose, and 2 mM Trolox. Unless otherwise indicated, the TTP, EFV and NVP concentrations were held at 50 μM, 500 nM and 1 μM, respectively, […]
Unlabeled T/P was surface tethered by introducing 2 µM T/P into the flow cell to allow formation of a surface-dense layer of T/P substrates, which promoted observation of RT-T/P complexes. 40 pM of labeled RT was then introduced into the flow cell and allowed to bind to the T/P. Unbound RT was removed by extensive washing. Low concentrations of RT followed by a wash step eliminated excess background noise and/or saturation of the EMCCD. Based on the relative distribution of donor and acceptor intensities observed in the TIRFM fields of view, […]
analyzed. Eapp was calculated using the equation: […]
where ID and IA denote background-corrected donor and acceptor intensities, respectively.
RT. Eapp histograms were subsequently constructed by collecting the pre-photobleach regions of all traces visibly resulting in donor and acceptor photobleaching, binned into 25 bins, and then fit with single Gaussian functions (see Supplementary Figure 3). Thumb/fingers distances reported in Supplementary Table 1 were derived from the fitted Eapp values using the Förster equation: […]
where r is the distance between the dipoles of Cy3 and Cy5, and Ro is the empirically calculated

K103N RT–T/P complex [3] = biological target: T1, K103N RT–T/P complex; type: binding, HIV-1; conditions: K103N vs WT RT–T/P complex
Protocol: as §1, §2, §3, §4
(§7) -ddC-3’) annealed to the same template. For the single-pair FRET experiments, the same T/P was used, but it lacked 5’-Cy3. For the anisotropy […]
(§8) Fluorescence anisotropy experiments were performed as previously described (5, 6), using a Varian Cary Eclipse fluorescence spectrophotometer. […]
(§9) 5 and 10 nm respectively. […] Anisotropy (r) was calculated as: r= (IVV-G·IVH)/(IVV+2·G·IVH) (1) where IVV is the fluorescence intensity with vertically oriented excitation and emission polarizers and IVH is the fluorescence intensity with a vertically oriented excitation polarizer and a horizontally oriented emission polarizer. The G-factor, defined as G=IHV/IHH, was measured […]
(§10) For all theoretical calculations, r was calculated using the Perrin equation: r=ro/(1+τ/ θ)                 (2) where ro is the fundamental anisotropy, τ  the lifetime and θ  the rotational correlation time (7). […]
as §5

K101R/E138D/K103N HIV-1 = assay: HIV-1 drug susceptibility assay, K101R/E138D/K103N virus; type: cell-based; conditions: for EC50: Human immunodeficiency virus 1, head: P4/R5 cells, footnote: TZM-bl cells, mean ± SD, read-out: EC50, inhibition of HIV-1 replication
Protocol: as §6

WT HIV-1 = assay: HIV-1 drug susceptibility assay (inhibition of HIV-1 replication), WT virus; type: cell-based; conditions: Human immunodeficiency virus 1, head: P4/R5 cells, footnote: TZM-bl cells, mean ± SD, at least three experiments
Protocol: as §6

K103N HIV-1 = assay: HIV-1 drug susceptibility assay, K103N virus; type: cell-based
Protocol: as §6

K101R/E138D HIV-1 RT = biological target: T2, K101R/E138D HIV-1 RT (Human immunodeficiency virus type 1 group M subtype B, UniProt P04585, E725D/K688R); assay: Inhibition of RT RNA-dependent DNA polymerase activity, K101R/E138D RT; type: biochemical
T2 construct: asymmetric heterodimer composed of a 66-kDa (p66) subunit and a p66-derived 51-kDa (p51) subunit; made in house
Protocol: (§11) The RNA- and DNA-dependent DNA polymerase activities of the purified and labeled RTs were assessed as described previously ([14]).

E138D HIV-1 RT = biological target: T3, E138D HIV-1 RT (Human immunodeficiency virus type 1 group M subtype B, UniProt P04585, E725D); assay: Inhibition of RT RNA-dependent DNA polymerase activity, E138D RT; type: biochemical
T3 construct: asymmetric heterodimer composed of a 66-kDa (p66) subunit and a p66-derived 51-kDa (p51) subunit; made in house
Protocol: as §11

WT RT–T/P complex [4] = biological target: T4, WT RT–T/P complex (Human immunodeficiency virus type 1 group M subtype B, UniProt P04585); assay: biochemical; design: species or system HIV-1; conditions: fluorescence anisotropy, 5 nM T/P, read-out: Kd, NNRTI binding to the RT–T/P complex
T4 construct: asymmetric heterodimer composed of a 66-kDa (p66) subunit and a p66-derived 51-kDa (p51) subunit; made in house
Protocol: as §1, §2, §3, §4, §7, §8, §9, §10, §5

WT HIV-1 RT = biological target: T5, WT HIV-1 RT (Human immunodeficiency virus type 1 group M subtype B, UniProt P04585); assay: biochemical; conditions: mean ± SD, at least four experiments, read-out: IC50, inhibition of RT RNA-dependent DNA polymerase activity
T5 construct: asymmetric heterodimer composed of a 66-kDa (p66) subunit and a p66-derived 51-kDa (p51) subunit; made in house
Protocol: as §11

K101R HIV-1 RT = biological target: T6, K101R HIV-1 RT (Human immunodeficiency virus type 1 group M subtype B, UniProt P04585, K688R); assay: Inhibition of RT RNA-dependent DNA polymerase activity, K101R RT; type: biochemical
T6 construct: asymmetric heterodimer composed of a 66-kDa (p66) subunit and a p66-derived 51-kDa (p51) subunit; made in house
Protocol: as §11

[5] = Human immunodeficiency virus 1, K103N virus, head: P4/R5 cells, footnote: TZM-bl cells, mean ± SD, read-out: EC50, inhibition of HIV-1 replication

Structure (SMILES): Cc1cn([C@H]2C[C@H](O)[C@@H](COP(=O)(O)OP(=O)(O)OP(=O)(O)O)O2)c(=O)[nH]c1=O [dTTP]
- Increase of Kd for dTTP binding in the presence of inhibitor (K103N RT–T/P complex [1]): 3 fold

Structure (SMILES): Cc1ccnc2c1NC(=O)c1cccnc1N2C1CC1 [Nevirapine, nevirapine]
- EC50 (K101R/E138D HIV-1; K101R/E138D virus): 21.6 ± 16.8 nM
- Eapp (apparent FRET energy transfer, fingers-thumb) (WT RT–T/P complex [2]; WT RT-T/P plus NNRTI (EFV 500 nM, NVP 1 μM), centre of Gaussian fit, listed as NVP): 0.68 ± 0.18 and 0.68
- Eapp (apparent FRET energy transfer, fingers-thumb) (WT RT–T/P complex [2]; WT RT-T/P-dNTP plus NNRTI): 0.72 ± 0.14
- Average opening of the fingers and thumb (WT RT–T/P complex [2]; WT RT–T/P complex, NNRTI vs no inhibitor): 2.0 Å
- Effect on fingers/thumb FRET of the ternary complex (WT RT–T/P complex [2]; WT RT–T/P–dNTP complex, NNRTI infused): did not affect the FRET histogram
- Decrease of binding affinity by the K103N substitution (K103N RT–T/P complex [3]): ~10 fold
- EC50 (K101R/E138D/K103N HIV-1): > 200 nM
- EC50 (WT HIV-1): 24.6 ± 5.9 nM
- EC50 (K103N HIV-1; [5]): > 200 nM

Structure (SMILES): O=C1Nc2ccc(Cl)cc2[C@@](C#CC2CC2)(C(F)(F)F)O1 [Efavirenz, efavirenz]
- Increase of susceptibility (as measured by IC50 and EC50) by the E138D/K101R mutation (K101R/E138D HIV-1; E138D/K101R vs WT): up to 7 fold
- EC50 (K101R/E138D HIV-1; K101R/E138D virus): 0.2 nM
- EC50 (K101R/E138D/K103N HIV-1): 15.9 ± 2.4 nM
- EC50 (WT HIV-1): 1.3 ± 0.2 nM
- EC50 (K103N HIV-1; Human immunodeficiency virus 1, read-out: EC50, inhibition of HIV-1 replication): 64 ± 18.7 nM

Structure (SMILES): Cc1cc(/C=C/C#N)cc(C)c1Nc1ccnc(Nc2ccc(C#N)cc2)n1 [Rilpivirine, rilpivirine]
- EC50 (K101R/E138D HIV-1; K101R/E138D virus): 0.06 ± 0.01 nM
- Fold-R (EC50 mutant/EC50 WT) (K101R/E138D HIV-1; K101R/E138D virus): 0.2
- Fold-R (IC50 mutant/IC50 WT) (K101R/E138D HIV-1 RT): 0.5
- IC50 (K101R/E138D HIV-1 RT; mean ± SD): 11.2 ± 0.8 nM
- Effect of the K103N substitution on NNRTI binding affinity (K103N RT–T/P complex [3]): did not decrease the binding affinity
- Fold-R (EC50 mutant/EC50 WT) (K101R/E138D/K103N HIV-1): 0.3
- EC50 (K101R/E138D/K103N HIV-1): 0.12 ± 0.03 nM
- Fold-R (IC50 mutant/IC50 WT) (E138D HIV-1 RT): 0.4
- IC50 (E138D HIV-1 RT; mean ± SD): 8.3 ± 1.2 nM
- Kd (WT RT–T/P complex [4]): 82.5 nM
- IC50 (WT HIV-1 RT): 22.5 ± 2.2 nM
- Fold-R (IC50 mutant/IC50 WT) (K101R HIV-1 RT): 0.7
- IC50 (K101R HIV-1 RT; mean ± SD): 15.5 ± 7.6 nM
- EC50 (WT HIV-1): 0.37 ± 0.06 nM
- EC50 (K103N HIV-1; [5]): 0.4 ± 0.1 nM
- Fold-R (EC50 mutant/EC50 WT) (K103N HIV-1; K103N virus): 1.1
